The test system of test [1] is A2780 xenografts. The test can be described thus: A2780 ovarian cancer xenograft in Mf1 nude mice (tumor growth). It is filed as in vivo, human. Conditions: monotherapy; RAM0 15 mg/kg every other day or cisplatin once a week. On the procedure: Tumor weights are indicated after treatment of inoculated mice with a human control IgG or with RAM0. Antibodies were applied either alone or in combination with cisplatin.
This effect is of high relevance, in particular if it can also be observed in vivo. This was explored in female Mf1 nude mice inoculated with A2780 xenografts (FIG. 5). Mice (n=10/group) were inoculated with 1*10^6 A2780 cells resuspended in matrigel. […] Cisplatin was administered once a week starting on day 2 after xenograft inoculation.
Background: Xenograft models place foreign cells or tissue in a host animal.

Test [2] concerns A2780 cells. In words: Cisplatin-dependent cell killing assay (calcein-AM, flow cytometry). It is filed as cell-based, human. The settings on record: in presence of 50 nM RAM0; 48 hours; p<0.01. On the procedure:
Data are the means±standard deviation of 9 independent experiments.
After 48 hours of incubation cells were detached with Accutase™, labeled with calcein-AM and the level of calcein fluorescence was determined by flow cytometry. The mean fluorescence intensity in the absence of any drug or antibody was set to 1 to normalize for interassay variations. The mean fluorescent intensities were blotted against the cisplatin concentration and the half maximum active concentrations of cisplatin (EC50-values) were calculated.

Test [3] relates to BxPC3 human pancreatic cancer cells. In words: Orthotopic BxPC3 xenograft model for pancreatic cancer in nude mice (survival). Type of test: in vivo. Conditions: monotherapy, gemcitabine 100 mg/kg or RAM9 60 mg/kg alone. On the procedure:
Control groups were left untreated (left and right panel, dotted black line) or were treated with a control human monoclonal antibody (Control IgG, left panel, solid grey line) or with gemcitabine alone (Gemcitabine, left panel, solid black line). The survival curves represent the points in time when animals had to be sacrificed in accordance with UK Home Office Guidance.
BxPC3 cells are derived from a human pancreatic adenocarcinoma and grow inside the pancreas once they have been injected orthotopically in nude mice and present as a solid tumor. CD1-Foxn1/nu nude mice are orthotopically inoculated with 1×10^6 BxPC3 cells (injection of 30 μl matrigel:tumor cell suspension into the pancreas) and the tumor was allowed to establish for 7 days. […] Additional control groups were left untreated or received a control human IgG1 monoclonal antibody. The growth of internal tumors was judged by external signs (e.g. abdominal distension causing more than 20% increase in normal body weight, or a 20% loss in normal body weight) or clinical signs (e.g. dyspnoea, jaundice, neurological signs, digestive disturbances). Animals reaching the home office limit according to the UK home office guidance were sacrificed (for animal welfare reasons). The resulting survival curve was used as primary outcome of the study.

The test system of test [4] is Colo357 human pancreatic cancer cell line. The test can be described thus: Orthotopic Colo357 xenograft model for pancreatic cancer in nude mice (survival, tumor volume, microvessel density). Type of test: in vivo. The settings on record: monotherapy. On the procedure:
Control groups were left untreated or were treated with gemcitabine alone (Gem) or a control human monoclonal antibody alone (Control) or with a control human monoclonal antibody in combination with gemcitabine (Control+Gem). (A) Survival curves representing the points in time when animals had to be sacrificed in accordance with UK Home Office Guidance. (B) Tumor volume was measured in as subset of animals after animals had been sacrificed on day 20 after cell implantation. (C) After treatment, mice bearing a Colo357 xenograft were injected i.v. with the FITC-conjugated tomato lectin to visualize the blood vessels on day 12. Microvessel density was quantified using ImagePro Plus software (Image-Pro plus, Media Cybernetics) and vessel density was expressed as the mean percentage of total surface area.
CD1-Foxn1/nu nude mice are orthotopically inoculated with 1×10^5 Colo357 cells (injection of 30 μl matrigel:tumor cell suspension into the pancreas) and the tumor was allowed to establish for 7 days. […]
We further analyzed […] vessel density in a small cohort of animals. […] Cell nuclei were stained using propidium iodide, and vessels were visualized using confocal microscopy (Zeiss LSM 510 META), and microvessel density was quantified using ImagePro Plus software (Image-Pro plus, Media Cybernetics). Vessel density was expressed as the mean

In test [5] the test system is LnCAP cells. In words: Mitoxantrone-dependent cell killing assay (calcein-AM, flow cytometry). The settings on record: for EC50: Homo sapiens, LNCaP, 48 h, n=10. It is filed as cell-based, human. On the procedure:
The single values as well as the mean±standard deviation of 10 independent experiments are shown.
After 48 hours of incubation cells were detached with Accutase™, labeled with calcein-AM and the level of calcein fluorescence was determined by flow cytometry. The mean fluorescence intensity in the absence of any drug or antibody was set to 1 to normalize for interassay variations. The mean fluorescent intensities were plotted against the mitoxantrone concentration and the half maximum active concentrations of mitoxantrone (EC50-values) were calculated.

In test [6] the test system is A2780adr ovarian cancer cells. In words: Induction of apoptosis (caspase 3 activity) in doxorubicin-resistant ovarian cancer cells. Type of test: cell-based, human. Conditions: agent alone; 72 hours of treatment. On the procedure:
The percentage increased caspase 3 activity over non-treated cells is indicated. Cells were treated with a human isotype control IgG (Control IgG), anti-MIF antibody RAM0 or RAM9 alone, a combination of control IgG and doxorubicin (Control IgG+Dox), doxorubicin alone (Dox) or a combination of anti-MIF antibody and doxorubicin (RAM0+Dox or RAM9+Dox).
The induction of apoptosis was assessed by detection of caspase 3 activity after 72 hours of treatment.

As usually defined, the EC50 is the concentration needed to bring the measured effect to its halfway point.

Structures are written as SMILES.

Consider `N.N.[Cl][Pt][Cl]` [Cisplatin, reference compound], for which the tumor growth entry in test [1] is “did not have any effect on tumor growth”. Further, the EC50-value of cisplatin result in test [2] is recorded as “reduced significantly”.

As for `Nc1ccn([C@@H]2O[C@H](CO)[C@@H](O)C2(F)F)c(=O)n1` [Gemcitabine, reference compound], in test [3], the “survival of the xenografted mice” value is reported as “only marginally prolonged the survival”. Further, the “blood vessel density in the tumour microenvironment” value in test [4] (day 12, FITC-conjugated tomato lectin) is “Neither gemcitabine nor RAM0 have a significant effect”. Also, the survival entry in test [4] (gemcitabine 100 mg/kg or RAM0 60 mg/kg alone, i.p., Colo357 in nude mice) was “only prolonged survival to a marginal and statistically insignificant extent”.

As to `O=C1c2c(O)ccc(O)c2C(=O)c2c(NCCNCCO)ccc(NCCNCCO)c21` [mitoxantrone, Mitoxantrone], the values for the EC50 in test [5] (in presence of 100 nM RAM0) and in test [5] (mitoxantrone alone) were 0.97 nM and 1.6 nM, respectively. In addition, the “mean EC50 of mitoxantrone” value in test [5] (in presence of 100 nM human isotype control antibody, compared to mitoxantrone alone) is given as “identical mean EC50”.

For the compound `COc1cccc2c1C(=O)c1c(O)c3c(c(O)c1C2=O)C[C@@](O)(C(=O)CO)C[C@@H]3O[C@H]1C[C@H](N)[C@H](O)[C@H](C)O1` [Doxorubicin, reference compound], the “caspase 3 activity” value in test [6] is “significant but minor enhanced caspase 3 activity”.

The values are drawn from patent US20150071942A1, “COMBINATION THERAPY OF ANTI-MIF ANTIBODIES AND CHEMOTHERAPEUTICS” (Baxter Healthcare SA, priority 2012, published 2015).
